Experimental data from ChEMBL document CHEMBL1138534, “Cellular effects of reversed amidines on Trypanosoma cruzi” (Antimicrob Agents Chemother, 2007).
The source made the active and inactive calls. No cut-off for these calls is given here.

How the values were obtained:
Trypanosoma cruzi [1] = assay: Antitrypanosomal activity against Trypanosoma cruzi Y bloodstream trypomastigotes assessed as parasite death at 3.5 uM after 24 hrs by light microscope; type: functional
Trypanosoma cruzi [2] = assay: Antitrypanosomal activity against Trypanosoma cruzi Y amastigotes after 24 hrs by light microscope; type: functional, organism-based
Trypanosoma cruzi [3] = assay: Antitrypanosomal activity against Trypanosoma cruzi Y bloodstream trypomastigotes at 1.18 uM after 2 hrs by light microscope; type: functional
Trypanosoma cruzi [4] = assay: Antitrypanosomal activity against Trypanosoma cruzi Y bloodstream trypomastigotes after 24 hrs by light microscope; type: functional, organism-based
Trypanosoma cruzi [5] = assay: Antitrypanosomal activity against Trypanosoma cruzi Y bloodstream trypomastigotes assessed as reduction in mitochondrial membrane potential at IC50 after 24 hrs by flow cytometry; type: functional; design: scale not given: the % may be the effect or the level left
Trypanosoma cruzi [6] = assay: Antitrypanosomal activity against Trypanosoma cruzi Y amastigotes assessed as disorganization of kinetoplast at IC50 after 24 hrs by transmission electron microscopy; type: functional, organism-based
Trypanosoma cruzi [7] = assay: Antitrypanosomal activity against Trypanosoma cruzi Y bloodstream trypomastigotes assessed as microtubule axoneme structure after 24 hrs by transmission electron micrograph; type: functional, organism-based
Trypanosoma cruzi [8] = assay: Antitrypanosomal activity against Trypanosoma cruzi Y bloodstream trypomastigotes assessed as alteration in nuclear morphology after 24 hrs by transmission electron micrograph; type: functional, organism-based
Trypanosoma cruzi [9] = assay: Antitrypanosomal activity against Trypanosoma cruzi Y amastigotes assessed as alteration in nuclear morphology at IC50 after 24 hrs by transmission electron microscopy; type: functional, organism-based
Trypanosoma cruzi [10] = assay: Antitrypanosomal activity against Trypanosoma cruzi Y amastigotes assessed as intense vesicular profile in flageller pocket at IC50 after 24 hrs by transmission electron microscopy; type: functional, organism-based
Trypanosoma cruzi [11] = assay: Antitrypanosomal activity against Trypanosoma cruzi Y amastigotes assessed as vacuolization and loss of cytoplasm components at IC50 after 24 hrs by transmission electron microscopy; type: functional, organism-based
Trypanosoma cruzi [12] = assay: Antitrypanosomal activity against Trypanosoma cruzi Y bloodstream trypomastigotes assessed as parasite lysis at 3.5 uM after 24 hrs by light microscope; type: functional
Trypanosoma cruzi [13] = assay: Antitrypanosomal activity against Trypanosoma cruzi Y bloodstream trypomastigotes assessed as swelling in mitochondria and kinetoplast after 24 hrs by transmission electron micrograph; type: functional, organism-based
Trypanosoma cruzi [14] = assay: Antitrypanosomal activity against Trypanosoma cruzi Y amastigotes assessed as swelling and electrodense mitochondria at IC50 after 24 hrs by transmission electron microscopy; type: functional, organism-based
Trypanosoma cruzi [15] = assay: Antitrypanosomal activity against Trypanosoma cruzi Y bloodstream trypomastigotes assessed as parasite death at 0.014 uM after 24 hrs by light microscope; type: functional
Trypanosoma cruzi [16] = assay: Antitrypanosomal activity against Trypanosoma cruzi Y amastigotes assessed as disorganization of subpellicular mitochondria at IC50 after 24 hrs by transmission electron microscopy; type: functional, organism-based
Trypanosoma cruzi [17] = assay: Antitrypanosomal activity against Trypanosoma cruzi Y bloodstream trypomastigotes assessed as parasite death at 32 uM after 2 hrs by light microscope; type: functional
Trypanosoma cruzi [18] = assay: Antitrypanosomal activity against Trypanosoma cruzi Y bloodstream trypomastigotes assessed as alteration in microtubule organization after 24 hrs by transmission electron micrograph; type: functional, organism-based
Trypanosoma cruzi [19] = assay: Antitrypanosomal activity against Trypanosoma cruzi Y bloodstream trypomastigotes assessed as alteration in mitochondria-kinetoplast complex after 24 hrs by transmission electron micrograph; type: functional, organism-based
Trypanosoma cruzi [20] = assay: Antitrypanosomal activity against Trypanosoma cruzi Y bloodstream trypomastigotes assessed as parasite death at 32 uM after 24 hrs by light microscope; type: functional
Trypanosoma cruzi [21] = assay: Antitrypanosomal activity against Trypanosoma cruzi Y bloodstream trypomastigotes assessed as intracellular dilated membrane profile after 24 hrs by transmission electron micrograph; type: functional, organism-based

| Structure (SMILES) | Activity (Trypanosoma cruzi [1]) [%] | IC50 (Trypanosoma cruzi [2]) [nM] | IC50 (Trypanosoma cruzi [4]) [nM] | Activity (Trypanosoma cruzi [5]) | Activity (Trypanosoma cruzi [7]) | Activity (Trypanosoma cruzi [10]) | Activity (Trypanosoma cruzi [12]) | Activity (Trypanosoma cruzi [13]) | also measured |
| --- | --- | --- | --- | --- | --- | --- | --- | --- | --- |
| N=C(Nc1ccc(-c2cc(-c3ccccc3)c(-c3ccc(NC(=N)c4ccccn4)cc3)o2)cc1)c1ccccn1 | 100 | 8.6 | 90 | 59% | Active | Active | Active | Active | Activity (Trypanosoma cruzi [3]): 55%; Activity (Trypanosoma cruzi [6]): Active; Activity (Trypanosoma cruzi [8]): Active; Activity (Trypanosoma cruzi [9]): Active; Activity (Trypanosoma cruzi [11]): Active |
| Cc1cc(NC(=N)c2ccccn2)ccc1-c1ccc(-c2ccc(NC(=N)c3ccccn3)cc2C)o1 | 95 | 240 | 450 | 54% | – | Active | 55% | – | Activity (Trypanosoma cruzi [14]): Active |
| Cc1ccc(C(=N)Nc2ccc(-c3ccc(-c4ccc(NC(=N)c5ccc(C)cn5)cc4OC(C)C)o3)c(OC(C)C)c2)nc1 | 95 | 1140 | 15 | 55% | – | – | 50% | – | Activity (Trypanosoma cruzi [15]): 49%; Activity (Trypanosoma cruzi [16]): Active |
| COc1cc(NC(=N)N)ccc1-c1ccc(-c2ccc(NC(=N)N)cc2OC)o1 | – | > 10600 | 19400 | inactive | Active | – | – | Active | Activity (Trypanosoma cruzi [17]): 23%; Activity (Trypanosoma cruzi [18]): Active; Activity (Trypanosoma cruzi [19]): Active; Activity (Trypanosoma cruzi [20]): 84%; Activity (Trypanosoma cruzi [21]): Active |
